This is an account of results in patent publication US20180344641A1, “MESOPOROUS SILICA NANOPARTICLES AND SUPPORTED LIPID BI-LAYER NANOPARTICLES FOR BIOMEDICAL APPLICATIONS” (priority 2015, published 2018).

The conditions of series [1]: Federico et al., 2012; cited from earlier work.
In another series the test system is REH+EGFR cells. Description: Cell viability, CellTiter-Glo 2.0 Assay. The class given is cell-based, human. The following applies: free GEM 0 to 30 uM 1 hour, viability at 24 hours. The procedure: (§1) Whole human blood was acquired from healthy donors with informed consent and stabilized in K2EDTA tubes (BD Biosciences). hRBCs were purified following reported procedure (Liao et al., 2011), then incubated with either bare mMSNs or protocells (25, 50, 100, 200, and 400 μg/mL) at 37° C. After 3 hours of exposure, samples were centrifuged at 300 g for 3 minutes, then 100 μL of supernatant from each sample was transferred to a 96-well plate. Hemoglobin absorbance was measured using a BioTek microplate reader (Winooski, Vt.) at 541 nm. The percent hemolysis of each sample was quantified using a reported equation (Liao et al., 2011). In addition, we examined the biocompatibility of anti-EGFR targeted protocells in vitro. We incubated about 1.5×10^5 cells/mL of REH and REH+EGFR cell lines with either 12.5, 25, 50, 100, and 200 μg/mL of anti-EGFR targeted protocells in complete medium for 1 hour at 37° C. Cells were washed twice in complete media and transferred to a 96-well plate for 24 hours at 37° C. Cell viability was assessed by CellTiter-Glo® 2.0 Assay as measured by BioTek microplate reader. The cell viability was calculated as a percentage of non-protocell treated sample.
(§2) […] Cell viability was assessed by CellTiter-Glo® 2.0 Assay as measured by BioTek microplate reader. The cell viability was calculated as a percentage of non-protocell treated sample.
(In general: Cellular ATP, detected with luciferase, serves as a proxy for viable cell number.)

Another series relates to REH cells. Description: Cell viability, CellTiter-Glo 2.0 Assay. The following applies: free GEM 0 to 30 uM 1 hour, viability at 24 hours. The class given is cell-based, human. As to the method:
as §1, §2

In the case of `Nc1ccn([C@@H]2O[C@H](CO)[C@@H](O)C2(F)F)c(=O)n1` [GEM, Gemcitabine], the plasma half-life in series [1] was 8 to 17 min. In addition, the “viability of REH+EGFR cells” value in the series on REH+EGFR cells was “Loss in cell viability of REH and REH+EGFR cells”. Moreover, the “viability of REH cells” value in the series with REH cells was “Loss in cell viability of REH and REH+EGFR cells”.
